Source: patent US5240959A, “Aranorosinol-A and aranorosinol-B produced by Pseudoarachniotus roseus” (Hoechst Aktiengesellschaft, priority 1991, dated 1993)
≈ marks a conversion by molar mass, not a printed value.

Columns and labels:
[1] = tested on: Staphylococcus aureus 209 P; experiment: Minimum inhibitory concentration, Staphylococcus aureus 209 P; assay type: cell-based
Source text: (§1) The minimum inhibitory concentrations required to inhibit different bacteria and fungal strains by Aranorosinol-A and Aranorosinol-B are given in Table I

[2] = tested on: Staphylococcus aureus 20240; experiment: Minimum inhibitory concentration, Staphylococcus aureus 20240; assay type: cell-based
Source text: as §1

Bacillus subtilis = experiment: Minimum inhibitory concentration, Bacillus subtilis; assay type: cell-based
Source text: as §1

Streptococcus faecalis = experiment: Minimum inhibitory concentration, Streptococcus faecalis; assay type: cell-based; settings: Enterococcus faecalis
Source text: as §1

E. coli Ess 2231 = experiment: Minimum inhibitory concentration, E. coli Ess 2231; assay type: cell-based; settings: Escherichia coli, ESS2231
Source text: as §1

E. coli 9632 = experiment: Minimum inhibitory concentration, E. coli 9632; assay type: cell-based; settings: Escherichia coli
Source text: as §1

Proteus vulgaris = experiment: Minimum inhibitory concentration, Proteus vulgaris; assay type: cell-based
Source text: as §1

Salmonella typhimurium = experiment: Minimum inhibitory concentration, Salmonella typhimurium; assay type: cell-based; settings: Salmonella enterica
Source text: as §1

Klebsiella pneumoniae = experiment: Minimum inhibitory concentration, Klebsiella pneumoniae; assay type: cell-based
Source text: as §1

Pseudomonas aeruginosa = experiment: Minimum inhibitory concentration, Pseudomonas aeruginosa; assay type: cell-based
Source text: as §1

Candida albicans = experiment: Minimum inhibitory concentration, Candida albicans; assay type: cell-based
Source text: as §1

Saccharomyces cerevisiae = experiment: Minimum inhibitory concentration, Saccharomyces cerevisiae; assay type: cell-based
Source text: as §1

Aspergillus niger = experiment: Minimum inhibitory concentration, Aspergillus niger; assay type: cell-based
Source text: as §1

[3] = tested on: Trichophyton mentagrophytes; experiment: Minimum inhibitory concentration, Trichophyton mentagrophytes; assay type: cell-based
Source text: as §1

Microsporum = experiment: Minimum inhibitory concentration, Microsporum; assay type: cell-based
Source text: as §1

[4] = tested on: bacteria and fungal strains; experiment: Antibacterial and antifungal activity spectrum; assay type: cell-based; settings: conclusion from Table I
Source text: as §1

Solubility = assay type: physicochemical
[5] = in dichloromethane, chloroform, acetone, methanol, diethyl ether, ethyl acetate and dimethyl sulfoxide

SMILES | MIC [1] [µg/mL] | MIC [2] [µg/mL] | MIC (Bacillus subtilis) [µg/mL] | MIC (Streptococcus faecalis) [µg/mL] | MIC (E. coli Ess 2231) [µg/mL] | MIC (E. coli 9632) [µg/mL] | MIC (Proteus vulgaris) [µg/mL] | MIC (Salmonella typhimurium) [µg/mL] | MIC (Klebsiella pneumoniae) [µg/mL] | MIC (Pseudomonas aeruginosa) [µg/mL] | MIC (Candida albicans) [µg/mL] | MIC (Saccharomyces cerevisiae) [µg/mL] | MIC (Aspergillus niger) [µg/mL] | MIC [3] [µg/mL] | MIC (Microsporum) [µg/mL] | activity against bacteria and fungi (in words) [4] | Solubility (Solubility; [5]) | Solubility (Solubility; in n-hexane, water)
CCCCCCC(C)/C=C(C)/C=C/C(=O)NC1CC2(OC1O)C1OC1C(O)C1OC12 (stereo not drawn) [Aranorosinol-A] | 15.6 (≈ 37 µM) | 31.2 (≈ 74.1 µM) | 3.9 (≈ 9.25 µM) | 31.2 (≈ 74.1 µM) | 62.5 (≈ 148 µM) | > 250 | > 250 | > 250 | > 250 | > 250 | 62.5 (≈ 148 µM) | 31.2 (≈ 74.1 µM) | > 250 | 62.5 (≈ 148 µM) | > 250 | active against Gram-positive, Gram-negative bacteria and against yeast and filamentous fungi | soluble | Insoluble
CCCCCCC(C)/C=C(C)/C=C/C(=O)NC1CC2(OC1O)C1OC1C(O)(CC(C)=O)C1OC12 (stereo not drawn) [Aranorosinol-B] | 31.2 (≈ 65.4 µM) | 15.6 (≈ 32.7 µM) | 15.6 (≈ 32.7 µM) | 125 (≈ 262 µM) | > 250 | > 250 | > 250 | > 250 | > 250 | > 250 | 250 (≈ 523 µM) | 250 (≈ 523 µM) | > 250 | > 250 | > 250 | active against Gram-positive bacteria only | soluble | Insoluble
